Results on five compounds are retold here after US9533961B2, “Molecules having certain pesticidal utilities, and intermediates, compositions, and processes related thereto” (priority 2014, dated 2017).

Common to all, as to format: in vivo
In data set [1] the test system is Cabbage Looper (Trichoplusia ni, TRIPNI) ("CL"). Briefly: Bioassay on Cabbage Looper (CL), 128-well diet tray assay. To be noted: 168 h, read-out: CL % Control (or Mortality) rating. How it is done: (§1) Certain molecules disclosed in this document were tested against BAW and CEW using procedures described in the following examples. In the reporting of the results, the “BAW & CL Rating Table” was used (See Table Section).
Bioassays on CL were conducted using a 128-well diet tray assay. one to five second instar CL larvae were placed in each well (3 mL) of the diet tray that had been previously filled with 1 mL of artificial diet to which 50 μg/cm^2 of the test compound (dissolved in 50 μL of 90:10 acetone-water mixture) had been applied (to each of eight wells) and then allowed to dry. Trays were covered with a clear self-adhesive cover and held at 25° C., 14:10 light-dark for five to seven days. Percent mortality was recorded for the larvae in each well; activity in the eight wells was then averaged. The results are indicated in the table entitled “Table ABC: Biological Results” (See Table Section).

The test system of data set [2] is Beet Armyworm (Spodoptera exigua, LAPHEG) ("BAW"). The data set can be described thus: Bioassay on Beet Armyworm (BAW), 128-well diet tray assay. The conditions noted are these: 168 h, read-out: BAW % Control (or Mortality) rating. How it is done: as §1
Bioassays on BAW were conducted using a 128-well diet tray assay. one to five second instar BAW larvae were placed in each well (3 mL) of the diet tray that had been previously filled with 1 mL of artificial diet to which 50 μg/cm^2 of the test compound (dissolved in 50 μL of 90:10 acetone-water mixture) had been applied (to each of eight wells) and then allowed to dry. Trays were covered with a clear self-adhesive cover and held at 25° C., 14:10 light-dark for five to seven days. Percent mortality was recorded for the larvae in each well; activity in the eight wells was then averaged. The results are indicated in the table entitled “Table ABC: Biological Results” (See Table Section).

Data set [3] deals with Green Peach Aphid (Myzus persicae, MYZUPE) ("GPA"). Briefly: Bioassay on Green Peach Aphid (GPA), foliar spray on cabbage seedlings. To be noted: 72 h, read-out: GPA % Control (or Mortality) rating. How it is done: Certain molecules disclosed in this document were tested against GPA using procedures described in the following example. In the reporting of the results, the “GPA Rating Table” was used (See Table Section).
Cabbage seedlings grown in 3-inch pots, with 2-3 small (3-5 cm) true leaves, were used as test substrate. The seedlings were infested with 20-50 GPA (wingless adult and nymph stages) one day prior to chemical application. Four pots with individual seedlings were used for each treatment. Test compounds (2 mg) were dissolved in 2 mL of acetone/methanol (1:1) solvent, forming stock solutions of 1000 ppm test compound. The stock solutions were diluted 5× with 0.025% Tween 20 in water to obtain the solution at 200 ppm test compound. A hand-held aspirator-type sprayer was used for spraying a solution to both sides of […] leaves until runoff. Reference plants (solvent check) were sprayed with the diluent only containing 20% by volume of acetone/methanol (1:1) solvent. Treated plants were held in a holding room for three days at approximately 25° C. and ambient relative humidity (RH) prior to grading. Evaluation was conducted by counting the number of live aphids per plant under a microscope. Percent Control was measured by using Abbott's correction formula (W. S. Abbott, “A Method of Computing the Effectiveness of an Insecticide” J. Econ. Entomol. 18 (1925), pp. 265-267) as follows. Corrected % Control=100*(X−Y)/X • where • X=No. of live aphids on solvent check plants and • Y=No. of live aphids on treated plants

Data set [4] relates to Yellow Fever Mosquito (Aedes aegypti, AEDSAE) ("YFM"). The data set can be described thus: Bioassay on Yellow Fever Mosquito (YFM), 96-well plate larval assay. The conditions noted are these: about 1 day-old larvae, from 4000 ppm master plate, scored on mortality after 3 days. How it is done: Certain molecules disclosed in this document were tested against YFM using procedures described in the following paragraph. In the reporting of the results, the “YFM Rating Table” was used (See Table Section).
Master plates containing 400 μg of a molecule dissolved in 100 μL of dimethyl sulfoxide (DMSO) (equivalent to a 4000 ppm solution) are used. A master plate of assembled molecules contains 15 μL per well. To this plate, 135 μL of a 90:10 water:acetone mixture is added to each well. A robot (Biomek® NXP Laboratory Automation Workstation) is programmed to dispense 15 μL aspirations from the master plate into an empty 96-well shallow plate (“daughter” plate). There are 6 reps (“daughter” plates) created per master. The created daughter plates are then immediately infested with YFM larvae.
The day before plates are to be treated, mosquito eggs are placed in Millipore water containing liver powder to begin hatching (4 g. into 400 mL). After the daughter plates are created using the robot, they are infested with 220 μL of the liver powder/larval mosquito mixture (about 1 day-old larvae). After plates are infested with mosquito larvae, a non-evaporative lid is used to cover the plate to reduce drying. Plates are held at room temperature for 3 days prior to grading. After 3 days, each well is observed and scored based on mortality.

Setting [5] is: 50 μg/cm^2 on artificial diet, second instar larvae, five to seven days, 25° C., average of eight wells.
Setting [6] is: 200 ppm foliar spray on cabbage seedlings, three days, Abbott corrected % control.

Where two headings read alike, the source gives them in different places.

On to `CC(C)c1cccc(C(=O)NCCc2ccc(-c3ncn(-c4ccc(OC(F)(F)F)cc4)n3)cc2)c1` [F41, 3-Isopropyl-N-(4-(1-(4-(trifluoromethoxy)phenyl)-1H-1,2,4-triazol-3-yl)phenethyl)benzamide], for which the values for the mortality at 50 µg/cm2 in data set [1] and in data set [2] (setting [5]) were 50 to 100% and 0%, respectively. Moreover, the mortality at 200 ppm in data set [3] (setting [6]) came out at 0%. Further, the “YFM % Control (or Mortality) rating” value in data set [4] is “D (No activity noticed in this bioassay)”.

As to `Cc1cccc(C)c1Nc1ccccc1C(=O)Nc1ccc(-c2ncn(-c3ccc(OC(F)(F)F)cc3)n2)cc1` [F1, 2-((2,6-dimethylphenyl)amino)-N-(4-(1-(4-(trifluoromethoxy)phenyl)-1H-1,2,4-triazol-3-yl)phenyl)benzamide], the mortality at 50 µg/cm2 in data set [1] and in data set [2] (setting [5]) was 0% in each case. The mortality at 200 ppm in data set [3] (setting [6]) fell in the range of 0 to 80%.

Take `COc1cccc(C(=O)Nc2ccc(-c3ncn(-c4ccc(OC(F)(F)C(F)(F)F)cc4)n3)cc2)c1` [F14, 3-Methoxy-N-(4-(1-(4-(perfluoroethoxy)phenyl)-1H-1,2,4-triazol-3-yl)phenyl)benzamide]: the mortality at 50 µg/cm2 in data set [1] and in data set [2] (setting [5]) was 50 to 100% throughout. The mortality at 200 ppm in data set [3] (setting [6]) is 0%. In addition, the “YFM % Control (or Mortality) rating” value in data set [4] is reported as “A (80-100)”.

On to `Cc1cccc(C)c1Nc1ccccc1C(=O)Nc1ccc(-c2ncn(-c3ccc(C(F)(F)F)cc3)n2)cc1` [F2, 2-((2,6-Dimethylphenyl)amino)-N-(4-(1-(4-(trifluoromethyl)phenyl)-1H-1,2,4-triazol-3-yl)phenyl)benzamide], for which the mortality at 50 µg/cm2 in data set [1] and in data set [2] was 0% in each case. For the same compound, the mortality at 200 ppm in data set [3] (foliar) is 0 to 80%.

With `O=C(Nc1ccc(-c2ncn(-c3ccc(OC(F)(F)F)cc3)n2)cc1)c1ccccc1Nc1ccccc1` [F7, 2-(phenylamino)-N-(4-(1-(4-(trifluoromethoxy)phenyl)-1H-1,2,4-triazol-3-yl)phenyl)benzamide], the mortality at 50 µg/cm2 in data set [1] and in data set [2] (setting [5]) was 50 to 100% throughout. In addition, in data set [3] (setting [6]), the mortality at 200 ppm is 0 to 80%. Further, the “YFM % Control (or Mortality) rating” value in data set [4] was “A (80-100)”.
